Our source for the IC50 and DC50 values is patent publication US20240293558A1, “KRAS INHIBITOR CONJUGATES” (Erasca, Inc., priority 2021, published 2024).

The structures appear in SMILES notation. Read-outs that look alike come from different tables or passages of the source.

Assay [1] concerns the target T1, KRAS G12D (Homo sapiens, UniProt P01116, G12D). Nature of the assay: In-vitro RAS-RAF binding assay (RRB), HTRF/FRET. In kind it is biochemical. On the set-up: Biotinylated KRAS protein amino acids 1-169 (produced at Erasca); made in house. Particulars: read-out: Inhibition of RAS-RAF Binding (in-vitro) KRAS (G12D) IC50. Put shortly:
(§1)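 Compounds preincubated with terbium-labelled biotinylated KRAS (aa 1-169, 30 nM) before 60 min SOS1-catalysed exchange to GTPgS. Binding of the d2-labelled cRAF RBD (30 nM) is read as FRET at equilibrium in duplicate. Buffer: 50 mM HEPES pH 7.5, 100 mM NaCl, 1 mM MgCl2, 1 mM DTT.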
Target sequence in this assay (P01116 1-169 isoform P01116-2 G12D): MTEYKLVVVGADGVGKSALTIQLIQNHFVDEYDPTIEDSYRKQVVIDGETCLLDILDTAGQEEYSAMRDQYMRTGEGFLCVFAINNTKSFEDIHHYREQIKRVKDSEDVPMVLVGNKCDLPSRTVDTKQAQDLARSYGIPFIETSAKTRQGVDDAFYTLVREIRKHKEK

The target in assay [2] is T2, KRas G12D fused to HiBiT peptide (Homo sapiens, UniProt P01116, G12D).
T2 construct: endogenous in cells; host or cells: AsPC-1 HiBiT knock-in single clone (Cas9 RNP + ssODN)
Nature of the assay: ASPC-1 HiBit assay to determine G12D degradation. The settings on record: AsPC-1 HiBiT cells, 24-hour incubation; read-out: ASPC-1 HiBit DC50 (C). The assay is classed as cell-based. A digest of the protocol:
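Homozygous AsPC-1 clone with N-terminal HiBiT knock-in on endogenous KRas G12D, 24 h compound exposure, top dose 10 μM, 3-fold, 10 points, 1% DMSO. Lytic HiBiT luminescence normalised to DMSO and inhibitor controls gives % degradation; DC50 from 4-parameter fit after hook-effect points removed.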
Background: HiBiT is a short tag that completes a luciferase, so light tracks the accessible tagged protein.

The next assay concerns the target T3, KRAS (WT) (Homo sapiens, UniProt P01116).
T3 construct: Biotinylated KRAS protein amino acids 1-169 (produced at Erasca); made in house
As to the kind of experiment: In-vitro RAS-RAF binding assay (RRB), HTRF/FRET. The settings on record: read-out: Inhibition of RAS-RAF Binding (in-vitro) KRAS (WT) IC50. In kind it is biochemical. A digest of the protocol:
as §1
On the technique in general: Time-resolved FRET reads energy transfer from a long-lived donor to a nearby acceptor.

For assay [3], the target named is T1, KRAS G12D. As to the kind of experiment: Degradation of KRas G12D in AsPC-1 cells, Western blot. The settings on record: ASPC-1 cell line after 24 h treatment (FIG. 11); read-out: KRAS wild type degradation DC50. In kind it is cell-based. Also on record: endogenous in cells; host or cells: AsPC-1 (ATCC CRL-1682). A general note: Immunoblotting shows a protein as a band on a membrane.
Target sequence in this assay (P01116 1-188 isoform P01116-2 G12D): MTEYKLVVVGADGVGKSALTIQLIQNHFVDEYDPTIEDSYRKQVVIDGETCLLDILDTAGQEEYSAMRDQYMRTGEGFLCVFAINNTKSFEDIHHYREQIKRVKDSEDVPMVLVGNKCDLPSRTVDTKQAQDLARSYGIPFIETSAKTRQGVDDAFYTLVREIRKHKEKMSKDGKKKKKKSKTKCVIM

The mark [4] stands for this setting: Table 2, average of multiple runs of each compound.

T3 sequence (P01116 1-169 isoform P01116-2): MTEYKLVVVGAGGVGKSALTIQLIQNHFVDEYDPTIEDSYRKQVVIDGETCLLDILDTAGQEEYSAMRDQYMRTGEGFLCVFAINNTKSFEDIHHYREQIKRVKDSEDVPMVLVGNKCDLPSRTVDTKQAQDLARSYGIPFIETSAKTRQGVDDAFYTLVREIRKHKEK
T2 sequence (P01116 1-188 isoform P01116-2 G12D): as the sequence (P01116 1-188 isoform P01116-2 G12D) above

Take `Cc1ncsc1-c1ccc([C@H](C)NC(=O)[C@@H]2C[C@@H](O)CN2C(=O)[C@@H](NC(=O)CCOCCCN2CCCC2COc2nc(N3CC4CCC(C3)N4)c3cc(Cl)c(-c4ccc(F)c5sc(N)c(C#N)c45)c(F)c3n2)C(C)(C)C)cc1` (stereo partly drawn) [Example 8, (2S,4R)-1-[(2S)-2-[3-[3-[2-[[7-(2-amino-3-cyano-7-fluoro-benzothiophen-4-yl)-6-chloro-4-(3,8-diazabicyclo[3.2.1]octan-3-yl)-8-fluoro-quinazolin-2-yl]oxymethyl]pyrrolidin-1-yl]propoxy]propanoylamino]-3,3-dimethyl-butanoyl]-4-hydroxy-N-[(1S)-1-[4-(4-methylthiazol-5-yl)phenyl]ethyl]pyrrolidine-2-carboxamide]: the IC50 – broadly, the midpoint of a concentration-inhibition curve – at KRAS G12D [1] (Table 1) turned out to be 11 nM; at KRAS G12D [1] (setting [4]), 8.18 nM; on KRAS (WT) (Table 1), 51 nM; at KRAS (WT) (setting [4]) it was 25.9 nM. In addition, the DC50 (usually the concentration at which degradation of the target reaches its halfway point) in assay [2] came to 126 nM.
As for `C[C@H](NC(=O)[C@@H]1C[C@@H](O)CN1C(=O)[C@@H](NC(=O)CCOCCCN1CCC[C@H]1COc1nc(N2CC3CCC(C2)N3)c2cc(C(F)(F)F)c(-c3ccc(F)c4sc(N)c(C#N)c34)c(F)c2n1)C(C)(C)C)c1ccc(-c2c(F)cccc2F)cc1` (single isomer, unassigned) [Example 20], the 50% inhibitory concentration (IC50) on KRAS G12D [1] (setting [4]) was determined as 8.52 nM; on KRAS (WT) (setting [4]) it was 26.9 nM. Moreover, the DC50 in assay [2] turned out to be 22.7 nM; at KRAS G12D [3], 8.2 nM.
